Results reported in patent US10555965B2, “Environment-responsive hyaluronic acid nanoparticles” (Industry-University Cooperation Foundation Hanyang …, priority 2015, dated 2020).

Columns and labels:
HepG2 cells = assay: Apoptosis/necrosis by flow cytometry (Annexin-V-FITC/PI); assay type: cell-based; conditions: 12 hours treatment, nanoparticles 1 mg/mL or 2DG 0.25 mg/mL
Description: The 2-deoxy-D-glucose was used as a glycolytic inhibitor. The ATP content was measured using an ATP Colorimetric/Fluorometric Assay Kit (Biovision). Lactate secretion was quantified using an EnzyChromTM L-Lactate Assay Kit (Bioassay). In cell fate, an effect of the HA-PBA nanoparticles on the inhibition of glycolysis was examined using a flow cytometer (BD FACS Caliber). Briefly, the HepG2 cells were treated with the HA-PBA nanoparticles or 2DG for 12 hours. An Annexin-V-FITC antibody and propidium iodide (PI) were used as markers for apoptotic and necrotic cell death. The HepG2 cells were seeded in a 24-well tissue culture plate at a density of 1×10^4 cells/well, and incubated at 37° C. for 24 hours under 5% CO2 conditions. The cells were washed with PBS, and treated for 8 hours with a low or high glucose medium including the HA-PBA nanoparticles (1 mg/mL) having a degree of […]. Also, prior to treatment with the HA-PBA nanoparticles, the cells were pretreated with a hyaluronate (2.5 mg/mL) dissolved in a low glucose medium. The medium was replaced with a fresh medium daily. At a predetermined point of time, the cells were treated with EZ-Cytox for 2 hours, and the optical density at 450 nm was measured using a UV/VIS spectrophotometer. The growth rate of the cells was calculated from a change in the number of the cells in 3 days of incubation. […]

HepG2 tumor = assay: In vivo therapeutic effect (liver cancer growth inhibition); set-up: species or system mice; conditions: intravenous, 5 times for a week, monitored 17 days
Description: To evaluate a therapeutic effect of the HA-PBA nanoparticles, the tumor-bearing mouse model of Experimental Example 7 was prepared.
The HA-PBA nanoparticles (20 mg kg), paclitaxel (10 mg/kg), and PBS were intravenously injected into the caudal veins of the tumor-bearing mice (injected 5 times for a week). Changes in tumor volume were monitored for 2 weeks (n=7). Tumor tissues were extracted from the mice, and embedded into an optimal cutting temperature (OCT) compound. The tumor tissues were cut into sections (12 μm thick), and stained with hematoxylin and eosin (H&E) and a DeadEnd™ colorimetric TUNEL system (Promega, USA).
When the tumor volumes of the mice reached approximately 90 mm3, the HA-PBA nanoparticles, paclitaxel, and PBS were injected into the mice.

| SMILES | in-late apoptotic HepG2 cells (HepG2 cells; control 5.77%) | apoptotic HepG2 cells (HepG2 cells; control 6.76%) | weight loss (HepG2 tumor) | tumor growth rate compared to PBS-treated group (HepG2 tumor; nanoparticles 20 mg kg, paclitaxel 10 mg/kg) |
| --- | --- | --- | --- | --- |
| O=CC[C@@H](O)[C@H](O)[C@H](O)CO [2DG, 2-deoxy-D-glucose] | 4.65% | 18.81% | – | – |
| CC(=O)O[C@H]1C(=O)[C@@]2(C)[C@H]([C@H](OC(=O)c3ccccc3)[C@]3(O)C[C@H](OC(=O)[C@H](O)[C@@H](NC(=O)c4ccccc4)c4ccccc4)C(C)=C1C3(C)C)[C@]1(OC(C)=O)CO[C@@H]1C[C@@H]2O [paclitaxel] | – | – | No weight loss | inhibited tumor growth rate |
